Laboratory results reported in patent EP0333517A2, “Method and agent for inhibiting the binding of human polymorphonuclear leukocytes to endothelium and compositions therefor” (THE ROCKEFELLER UNIVERSITY, priority 1988, dated 1989).
Residues, ends and D or L forms follow the SMILES beside them.

Tests used:
[1] = tested on: binding of PMN to endothelial cells; test: Binding of phorbol dibutyrate-stimulated PMN to endothelial cells (binding assessed by microscopy); format: cell-based; settings: indicated doses (Figures 3 and 4, not given); human umbilical cord endothelial cells; 37°C for 15 min
Method: This example illustrates that the method of the invention can be used to inhibit the binding of stimulated PMN to human endothelial cells.
The experiments are conducted as follows. Purified human PMN were stimulated for 15 min. with 300 ng/ml of phorbol dibutyrate. This stimulation is necessary to enable PMN to bind, and mimics the stimulation of PMN at sites of inflammation. Endothelial cells were isolated from human umbilical cords by standard methods [Pawlowski et al., Proc. Natl. Aca. Sci., 82, 8202 (1985)] and were cultivated on fibronectin-coated tissue culture surfaces to confluence. […] PMN were washed and combined with the indicated doses of Arg-Leu-Leu-Pro-Gly-Gly-Leu-Gln-Gln-Gly-Arg-Gly- Asp-Ala-Val-Gly-Pro-Glu-Arg-Gly-Cys (Pep63) in Figure 3, or with the indicated doses of Gly-Gln-Gln-His-His-Leu-Gly-Gly-Ala-Lys-Gln-Ala-Gly-Asp-Val (G15) in Figure 4. The cells were then added to the endothelium and incubated at 37°C for 15 min. Unattached PMN were then washed away and the binding was assessed by microscopy.

[2] = tested on: binding of PMN to fibrinogen; test: Binding of phorbol dibutyrate-stimulated PMN to fibrinogen-coated surfaces (adherent cells counted by phase contrast microscopy); format: cell-based, human; settings: 2 mg/ml of synthetic peptide; PMN stimulated with 300 ng/ml phorbol dibutyrate; 20 min at 0°C then 30 min at 37°C; Figure 1
Method: This example illustrates that the method of the invention can be used to inhibit binding of stimulated PMN to fibrinogen-coated surfaces. Figure 1 illustrates the level of inhibition of binding by incubation with monoclonal antibodies against CD11b/CD18 and with the peptide L10, and Figure 2 illustrates the dose dependence of this inhibition.
Details of the experiments are as follows. Purified human PMN were stimulated for 15 min. with 300 ng/ml of phorbol dibutyrate. This stimulation is necessary to enable PMN to bind, and mimics the stimulation of PMN at sites of inflammation. Culture wells were coated with fibrinogen or human serum albumin by incubating 1 mg/ml of these proteins with the culture surfaces for 1 hr. at 20°C. The PMN were then washed and added to culture wells coated with fibrinogen in the presence of 10µg/ml of various monoclonal antibodies or 2 mg/ml of synthetic peptides. PMN were allowed to settle onto the surface for 20 min. at 0°C, then were warmed to 37°C for 30 min. The surfaces were then washed and the number of cells adherent were counted by phase contrast microscopy.

Compound | inhibition of the binding of PMN to endothelial cells [1] | binding of PMN to fibrinogen [2]
CC(C)C[C@H](NC(=O)[C@H](Cc1c[nH]cn1)NC(=O)[C@H](Cc1c[nH]cn1)NC(=O)[C@H](CCC(N)=O)NC(=O)[C@H](CCC(N)=O)NC(=O)CN)C(=O)NCC(=O)NCC(=O)N[C@@H](C)C(=O)N[C@@H](CCCCN)C(=O)N[C@@H](CCC(N)=O)C(=O)N[C@@H](C)C(=O)NCC(=O)N[C@@H](CC(=O)O)C(=O)N[C@H](C(=O)O)C(C)C [G15, Gly-Gln-Gln-His-His-Leu-Gly-Gly-Ala-Lys-Gln-Ala-Gly-Asp-Val] (H-GQQHHLGGAKQAGDV-OH) | dose dependence of inhibition | 
CC(C)C[C@H](N)C(=O)NCC(=O)NCC(=O)N[C@@H](C)C(=O)N[C@@H](CCCCN)C(=O)N[C@@H](CCC(N)=O)C(=O)N[C@@H](C)C(=O)NCC(=O)N[C@@H](CC(=O)O)C(=O)N[C@H](C(=O)O)C(C)C [L10, Leu-Gly-Gly-Ala-Lys-Gln-Ala-Gly-Asp-Val] (H-LGGAKQAGDV-OH) |  | strongly inhibits binding
CC(C)C[C@H](NC(=O)CNC(=O)CNC(=O)[C@@H]1CCCN1C(=O)[C@H](CC(C)C)NC(=O)[C@H](CC(C)C)NC(=O)[C@@H](N)CCCNC(=N)N)C(=O)N[C@@H](CCC(N)=O)C(=O)N[C@@H](CCC(N)=O)C(=O)NCC(=O)N[C@@H](CCCNC(=N)N)C(=O)NCC(=O)N[C@@H](CC(=O)O)C(=O)N[C@@H](C)C(=O)N[C@H](C(=O)NCC(=O)N1CCC[C@H]1C(=O)N[C@@H](CCC(=O)O)C(=O)N[C@@H](CCCNC(=N)N)C(=O)NCC(=O)N[C@@H](CS)C(=O)O)C(C)C [Pep63] (H-RLLPGGLQQGRGDAVGPERGC-OH) | dose dependence of inhibition | 
